# From patent US9789165B2 (Sanofi, priority 2013, dated 2017)
# Like-named read-outs stand apart in the source and are kept apart here. Square brackets hold non-standard residues; d marks the D form. Peptide text beside a SMILES is read from it. Nle = CCCC[C@H](N)C(=O)O; Aib = CC(C)(N)C(=O)O
# What was measured:
# [1] = target: T1, human glucagon receptor (hGLUC R) (Homo sapiens, UniProt P47871); assay: cAMP response of HEK-293 cells stably expressing human glucagon receptor (HTRF); type: cell-based; conditions: Table 6; cAMP formation
# T1 construct: expressed in transfected cells
# Experimental: cAMP content of cells was determined using a kit from Cisbio Corp. (cat. no. 62AM4PEC) based on HTRF (Homogenous Time Resolved Fluorescence). For preparation, cells were split into T175 culture flasks and grown overnight to near confluency in medium (DMEM/10% FBS). Medium was then removed and cells washed with PBS lacking calcium and magnesium, followed by proteinase treatment with accutase (Sigma-Aldrich cat. no. A6964). Detached cells were washed and resuspended in assay buffer (1×HBSS; 20 mM HEPES, 0.1% BSA, 2 mM IBMX) and cellular density determined. They were then diluted to 400000 cells/ml and 25 μl-aliquots dispensed into the wells of 96-well plates. For measurement, 25 μl of test compound in assay buffer was added to the wells, followed by incubation for 30 minutes at room temperature.
# [2] = Solubility testing in buffer systems, HPLC-UV of supernatant; type: physicochemical; conditions: buffer system
# Experimental: Prior to the testing of solubility and stability of a peptide batch, its content was determined. Therefore, two parameters were investigated, its purity (HPLC-UV) and the amount of salt load of the batch (ion chromatography).
# Therefore, solutions from solid samples were prepared in different buffer systems with a concentration of 1.0 mg/mL compound based on the previously determined content. HPLC-UV was performed after 2 h of gentle agitation from the supernatant, which was obtained by 20 min of centrifugation at 4000 rpm.
# This analysis also served as starting point (t0) for the stability testing.
# (§1) As HPLC/UPLC method, method D or E has been used.
# [3] = type: physicochemical; conditions: buffer, 168 h
# Experimental: After that time course, the sample was centrifuged for 20 min at 4000 rpm and the supernatant was analysed with HPLC-UV.
# For determination of the amount of the remaining peptide, the peak areas of the target compound at t0 and t7 were compared, resulting in “% remaining peptide”, following the equation % remaining peptide=[(peak area peptide t7)×100]/peak area peptide t0.
# The chemical stability is expressed as “% remaining peptide”.
# as §1
# [4] = Pharmacokinetic testing in mice, plasma LC/MS; type: in vivo; conditions: mouse, sc, 1 mg/kg s.c.
# Experimental: Mice were dosed 1 mg/kg subcutaneously (s.c.). The mice were sacrified and blood samples were collected after 0.25, 0.5, 1, 2, 4, 8, 16 and 24 hours post application. Plasma samples were analyzed after protein precipitation via liquid chromatography mass spectrometry (LC/MS). PK parameters and half-life were calculated using WinonLin Version 5.2.1 (non-compartment model).
# Pharmacokinetic profiles were determined as described in Methods.
# [5] = system: female diabetic dbdb-mice; assay: Glucose lowering in non-fasted female diabetic dbdb-mice; type: in vivo; conditions: 100 μg/kg s.c., baseline on average 29 mmol/l
# Experimental: Female diabetic dbdb-mice (BKS.Cg−+Leprdb/+Leprdb/OlaHsd) 10 weeks of age at study start were used. Mice were habituated to feeding and housing conditions for at least 2 weeks. 7 days prior to study start, HbA1c were determined to allocate mice to groups, aiming to spread low, medium and high HbA1c-values and in consequence the group-means (n=8), as equally as possible. On the day of study, food was removed, directly before sampling for baseline glucose assessment (t=0 min). Immediately afterwards, compounds or vehicle (phosphor buffered saline, PBS) were administered subcutaneously, 100 μg/kg, 10 ml/kg. Afterwards, blood samples were drawn by tail tip incision at 15, 30, 60, 90, 120, 150, 180, 240, 360, 480 min and 24 h. Food was re-offered after the 480 min-sampling.
# Data were analysed by 2-W-ANOVA on repeated measurements, followed by Dunnett's test as post-hoc assessment, level of significance p<0.05.
# Female dbdb-mice, received 100 μg/kg of SEQ ID NO: 8, SEQ ID NO: 9 or phosphate buffered saline (vehicle control) subcutaneously, at time 0 min.
# [6] = pH 4.5, target concentration 1.0 mg/mL, read-out: Solubility (pH 4.5)
# [7] = pH 7.4, target concentration 1.0 mg/mL, read-out: Solubility (pH 7.4)
# T1 sequence (P47871 26-477): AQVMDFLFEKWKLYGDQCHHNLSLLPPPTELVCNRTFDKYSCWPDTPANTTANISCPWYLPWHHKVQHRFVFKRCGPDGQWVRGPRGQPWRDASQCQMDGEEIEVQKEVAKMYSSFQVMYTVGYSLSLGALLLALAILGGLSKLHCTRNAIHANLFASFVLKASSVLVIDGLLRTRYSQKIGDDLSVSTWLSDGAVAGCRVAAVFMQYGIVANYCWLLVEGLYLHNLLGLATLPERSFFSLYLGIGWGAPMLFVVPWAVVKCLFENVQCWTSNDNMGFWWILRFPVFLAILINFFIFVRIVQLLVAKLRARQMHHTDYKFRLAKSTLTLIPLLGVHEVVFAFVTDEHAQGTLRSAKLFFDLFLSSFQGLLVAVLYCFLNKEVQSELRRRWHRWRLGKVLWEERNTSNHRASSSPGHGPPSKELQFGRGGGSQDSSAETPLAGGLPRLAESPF
Compound,EC50 [1],"solubility at 2 h [2, 6]","solubility at 2 h [2, 7]","Stability (pH 4.5), % remaining peptide [3]","Stability (pH 7.4), % remaining peptide [3]",Cmax [4],half-life [4],"maximal effect, glucose reduction [5]"
"CC[C@H](C)[C@H](NC(=O)[C@H](CO)NC(=O)[C@H](CC(C)C)NC(=O)[C@H](CC(=O)O)NC(=O)[C@H](CO)NC(=O)[C@@H](NC(=O)[C@H](Cc1ccccc1)NC(=O)[C@@H](NC(=O)CNC(=O)[C@H](CCC(=O)O)NC(=O)C(C)(C)NC(=O)[C@@H](N)Cc1ccc(O)cc1)[C@@H](C)O)[C@@H](C)O)C(=O)N[C@@H](CCC(N)=O)C(=O)N[C@@H](CCSC)C(=O)N[C@@H](CCC(=O)O)C(=O)N[C@@H](CCCCN)C(=O)N[C@@H](CCCNC(=N)N)C(=O)N[C@@H](C)C(=O)N[C@@H](C)C(=O)NC(C)(C)C(=O)N[C@@H](CCC(=O)O)C(=O)N[C@@H](Cc1ccccc1)C(=O)N[C@H](C(=O)N[C@@H](CCC(=O)O)C(=O)N[C@@H](Cc1c[nH]c2ccccc12)C(=O)N[C@@H](CC(C)C)C(=O)N[C@@H](CCCCN)C(=O)N[C@@H](C)C(=O)NCC(=O)NCC(=O)N1CCC[C@H]1C(=O)N[C@@H](CO)C(=O)N[C@@H](CO)C(=O)NCC(=O)N[C@@H](C)C(=O)N1CCC[C@H]1C(=O)N1CCC[C@H]1C(=O)N1CCC[C@H]1C(=O)N[C@@H](CO)C(N)=O)[C@@H](C)CC [SEQ ID NO: 8, Y-Aib-E-G-T-F-T-S-D-L-S-I-Q-M-E-K-R-A-A-Aib-E-F-I-E-W-L-K-A-G-G-P-S-S-G-A-P-P-P-S-NH2] (H-Y[Aib]EGTFTSDLSIQMEKRAA[Aib]EFIEWLKAGGPSSGAPPPS-NH2)",> 1000 nM,> 1000 µg/mL,> 1000 µg/mL,99%,92%,734 ng/mL,18 min,~12 mmol/L
"CC[C@H](C)[C@H](NC(=O)[C@H](CO)NC(=O)[C@H](CC(C)C)NC(=O)[C@H](CC(=O)O)NC(=O)[C@H](CO)NC(=O)[C@@H](NC(=O)[C@H](Cc1ccccc1)NC(=O)[C@@H](NC(=O)CNC(=O)[C@H](CCC(=O)O)NC(=O)C(C)(C)NC(=O)[C@@H](N)Cc1ccc(O)cc1)[C@@H](C)O)[C@@H](C)O)C(=O)N[C@@H](CCC(N)=O)C(=O)N[C@@H](CC(C)C)C(=O)N[C@@H](CCC(=O)O)C(=O)N[C@@H](CCCCN)C(=O)N[C@@H](CCCNC(=N)N)C(=O)N[C@@H](C)C(=O)N[C@@H](C)C(=O)NC(C)(C)C(=O)N[C@@H](CCC(=O)O)C(=O)N[C@@H](Cc1ccccc1)C(=O)N[C@H](C(=O)N[C@@H](CCC(=O)O)C(=O)N[C@@H](Cc1c[nH]c2ccccc12)C(=O)N[C@@H](CC(C)C)C(=O)N[C@@H](CCCCN)C(=O)N[C@@H](C)C(=O)NCC(=O)NCC(=O)N1CCC[C@H]1C(=O)N[C@@H](CO)C(=O)N[C@@H](CO)C(=O)NCC(=O)N[C@@H](C)C(=O)N1CCC[C@H]1C(=O)N1CCC[C@H]1C(=O)N1CCC[C@H]1C(=O)N[C@@H](CO)C(N)=O)[C@@H](C)CC [SEQ ID NO: 9, Y-Aib-E-G-T-F-T-S-D-L-S-I-Q-L-E-K-R-A-A-Aib-EFIEWLKAGGPSSGAPPPSN H2] (H-Y[Aib]EGTFTSDLSIQLEKRAA[Aib]EFIEWLKAGGPSSGAPPPS-NH2)",–,875 µg/mL,892 µg/mL,100%,100%,–,–,~16 mmol/L
"CCCC[C@H](NC(=O)[C@H](CCC(N)=O)NC(=O)[C@@H](NC(=O)[C@H](CO)NC(=O)[C@H](CC(C)C)NC(=O)[C@H](CC(=O)O)NC(=O)[C@H](CO)NC(=O)[C@@H](NC(=O)[C@H](Cc1ccccc1)NC(=O)[C@@H](NC(=O)CNC(=O)[C@H](CCC(=O)O)NC(=O)C(C)(C)NC(=O)[C@@H](N)Cc1ccc(O)cc1)[C@@H](C)O)[C@@H](C)O)[C@@H](C)CC)C(=O)N[C@@H](CCC(=O)O)C(=O)N[C@@H](CCCCN)C(=O)N[C@@H](CCCNC(=N)N)C(=O)N[C@@H](C)C(=O)N[C@@H](C)C(=O)NC(C)(C)C(=O)N[C@@H](CCC(=O)O)C(=O)N[C@@H](Cc1ccccc1)C(=O)N[C@H](C(=O)N[C@@H](CCC(=O)O)C(=O)N[C@@H](Cc1c[nH]c2ccccc12)C(=O)N[C@@H](CC(C)C)C(=O)N[C@@H](CCCCN)C(=O)N[C@@H](C)C(=O)NCC(=O)NCC(=O)N1CCC[C@H]1C(=O)N[C@@H](CO)C(=O)N[C@@H](CO)C(=O)NCC(=O)N[C@@H](C)C(=O)N1CCC[C@H]1C(=O)N1CCC[C@H]1C(=O)N1CCC[C@H]1C(=O)N[C@@H](CO)C(N)=O)[C@@H](C)CC [SEQ ID NO: 10, Y-Aib-E-G-T-F-T-S-D-L-S-I-Q-Nle-E-K-R-A-A-Aib-E-F-I-E-W-L-K-A-G-G-P-S-S-G-A-P-P-P-S-NH2] (H-Y[Aib]EGTFTSDLSIQ[Nle]EKRAA[Aib]EFIEWLKAGGPSSGAPPPS-NH2)",–,960 µg/mL,> 1000 µg/mL,100%,100%,–,–,–
